# From ChEMBL document CHEMBL5725377, “BET bromodomain inhibitors and therapeutic methods using the same” (2017)
# Experiments:
# [1] = target: T1, Bromodomain-containing protein 2 (Homo sapiens, UniProt P25440); assay: (§1) FP Competitive Binding Assay (No.350): Fluorescence Polarization (FP) competitive binding studies (see above) were carried out using the FAM labeled fluorescent probe Cpd. No. 350 to determine binding affinities of representative compounds to both BD1 and BD2 of BRD2, BRD3, and BRD4 proteins. Equilibrium dissociation constants (Id) values of Cpd. […] Final Cpd. […] Kd values of Cpd.
# T1 sequence (P25440 whole entry): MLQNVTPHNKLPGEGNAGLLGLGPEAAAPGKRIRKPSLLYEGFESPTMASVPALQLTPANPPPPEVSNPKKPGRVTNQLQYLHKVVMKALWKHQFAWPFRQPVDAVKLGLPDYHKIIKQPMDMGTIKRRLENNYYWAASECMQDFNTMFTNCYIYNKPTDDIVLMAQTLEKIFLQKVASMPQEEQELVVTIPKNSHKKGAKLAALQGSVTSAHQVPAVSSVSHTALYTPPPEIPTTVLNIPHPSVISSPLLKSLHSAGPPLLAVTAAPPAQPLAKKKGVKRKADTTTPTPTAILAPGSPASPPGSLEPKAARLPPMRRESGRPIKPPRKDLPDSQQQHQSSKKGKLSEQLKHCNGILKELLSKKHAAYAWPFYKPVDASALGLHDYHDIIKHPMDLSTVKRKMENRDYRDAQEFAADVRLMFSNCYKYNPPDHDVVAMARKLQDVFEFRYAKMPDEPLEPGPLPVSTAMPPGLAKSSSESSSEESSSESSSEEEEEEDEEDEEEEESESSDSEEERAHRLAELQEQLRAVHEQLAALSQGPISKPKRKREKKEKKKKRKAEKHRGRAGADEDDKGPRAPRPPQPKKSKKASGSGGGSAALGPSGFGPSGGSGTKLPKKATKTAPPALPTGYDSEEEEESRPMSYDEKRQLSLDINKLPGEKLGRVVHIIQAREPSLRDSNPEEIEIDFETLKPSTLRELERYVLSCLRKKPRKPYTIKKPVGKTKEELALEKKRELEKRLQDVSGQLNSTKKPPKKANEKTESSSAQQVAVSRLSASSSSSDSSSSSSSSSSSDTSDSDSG
# [2] = target: T2, Bromodomain-containing protein 3 (Homo sapiens, UniProt Q15059); assay: as §1
# T2 sequence (Q15059 whole entry): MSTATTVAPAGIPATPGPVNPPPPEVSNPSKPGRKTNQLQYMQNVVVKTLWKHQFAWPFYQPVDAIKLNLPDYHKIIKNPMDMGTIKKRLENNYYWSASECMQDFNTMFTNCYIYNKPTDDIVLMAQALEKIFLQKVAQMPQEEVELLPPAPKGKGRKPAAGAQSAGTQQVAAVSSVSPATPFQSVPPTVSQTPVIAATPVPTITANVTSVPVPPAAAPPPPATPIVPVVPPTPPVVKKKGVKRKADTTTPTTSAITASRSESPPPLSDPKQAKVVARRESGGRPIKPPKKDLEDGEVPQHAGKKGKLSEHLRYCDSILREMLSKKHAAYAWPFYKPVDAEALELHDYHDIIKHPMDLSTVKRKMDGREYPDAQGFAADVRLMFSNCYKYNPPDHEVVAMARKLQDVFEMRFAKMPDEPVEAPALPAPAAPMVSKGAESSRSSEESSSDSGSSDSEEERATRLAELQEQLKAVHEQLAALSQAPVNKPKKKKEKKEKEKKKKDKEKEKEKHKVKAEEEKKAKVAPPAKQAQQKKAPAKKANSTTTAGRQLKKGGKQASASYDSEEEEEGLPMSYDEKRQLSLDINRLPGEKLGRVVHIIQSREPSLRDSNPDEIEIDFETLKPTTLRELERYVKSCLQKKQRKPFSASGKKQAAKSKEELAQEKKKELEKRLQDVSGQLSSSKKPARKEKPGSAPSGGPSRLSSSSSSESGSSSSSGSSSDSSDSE
# [3] = target: T1, Bromodomain-containing protein 2; assay: as §1; remark: listed apart in the source
# [4] = target: Bromodomain-containing protein 4 (Homo sapiens, UniProt O60885); assay: as §1
# [5] = target: T2, Bromodomain-containing protein 3; assay: as §1; remark: listed apart in the source
SMILES,Ki [1] [nM],Ki [2] [nM],Ki [3] [nM],Ki [4] [nM],Ki [5] [nM]
COc1cc2c(cc1-c1c(C)noc1C)[nH]c1nc(C)nc(-c3ccc(NC(=O)N4CCN(C5COC5)CC4)c4ccccc34)c12,7.8,23,17,39,3.5
COc1cc2c(cc1-c1c(C)noc1C)[nH]c1nc(C)nc(-c3ccc(NC(=O)N4CCN(C)CC4)c4ccccc34)c12,2.6,7.5,4.6,11,0.82
COc1cc2c(cc1-c1c(C)noc1C)[nH]c1nc(C)nc(-c3cc(C(=O)NC4CCN(C)CC4)cc(C(C)(C)C)c3)c12,5.2,6.3,2.2,9,1.1
